Experimental findings from publication PMC4592935, “Application of Molecular Modeling to Development of New Factor Xa Inhibitors” (BioMed Research International, 2015) are described below.

The target in series [1] is T1, Human factor Xa (Homo sapiens, UniProt P00742).
T1 construct: It consists of light (139 residues) and heavy (303 residues) chains linked by a disulfide bridge; purchased Hematologic Technologies Inc. (USA)
The series is described as follows: Inhibition of factor Xa hydrolysis of chromogenic substrate S2765 in buffer. Format: biochemical. To be noted: for IC50 / Inhibition of hydrolysis rate specific to the factor Xa substrate in the buffer system IC50: substrate S2765 250 μM, Xa 0.5 nM, 20 mM HEPES pH 8.0; for IC50: read-out: Inhibition of hydrolysis rate specific to the factor Xa substrate in the buffer system IC50; for inhibitory activity against factor Xa (in words): in vitro, chromogenic substrate hydrolysis. How it is done:
Human factor Xa was obtained from Hematologic Technologies Inc. (USA). The Xa-specific chromogenic substrate S2765 (Z-D-Arg-Gly-Arg-pNA·2HCl) was purchased from Chromogenix (USA). All other chemicals were of reagent and analytical grade.
The kinetics of factor Xa inhibition was determined from the hydrolysis reaction of a specific substrate by the enzyme in the presence of tested substances. The chromogenic substrate S2765 (Z-D-Arg-Gly-Arg-pNA·2HCl, Chromogenix, Instrumentation Laboratory Company, Lexington, MA 02421, USA) was used for registering accumulation of p-nitroaniline as a colored product by spectrophotometer.
Plate wells were filled with 20 mM HEPES (pH 8.0) containing 140 mM NaCl and 0.1% polyethylene glycol (molecular weight 6000 Da). Thereafter, the substrate was sequentially added to each well (final concentration, 250 μM), followed by the substance being tested (to a final concentration that was varied) and Xa (final concentration, 0.5 nM). The hydrolysis rate was monitored spectrophotometrically at 405 nm (absorption maximum of the reaction product p-nitroaniline).
The initial rate was determined as the slope of the linear part of the kinetic curve over the first 10 to 20 min of measurement. The inhibitory effect was expressed as the percentage of reduction of the initial hydrolysis rate. The reaction rate in the absence of any inhibitor was taken as 100%. Each result is the mean of two parallel determinations. The inhibitor concentration was determined decreasing hydrolysis rate to 50% (IC50). […] Graphs of optical density against time were plotted.

A short description of series [2]: Solubility as observed during factor Xa testing. Format: physicochemical. To be noted: limited the inhibition that could be achieved. The source says:
According to the results of our molecular modeling with SOL and DISCORE programs 17 compounds have been selected and investigated in the frame of in vitro experiments.

T1 sequence (P00742 235-488 limits assumed): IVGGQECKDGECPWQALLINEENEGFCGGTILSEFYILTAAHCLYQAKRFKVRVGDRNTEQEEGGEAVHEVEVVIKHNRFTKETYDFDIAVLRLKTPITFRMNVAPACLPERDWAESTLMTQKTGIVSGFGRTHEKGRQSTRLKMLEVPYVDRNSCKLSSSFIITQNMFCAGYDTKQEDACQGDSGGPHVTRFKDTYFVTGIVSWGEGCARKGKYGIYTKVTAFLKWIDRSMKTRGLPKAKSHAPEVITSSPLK
T1 sequence (P00742 41-179 partner limits assumed): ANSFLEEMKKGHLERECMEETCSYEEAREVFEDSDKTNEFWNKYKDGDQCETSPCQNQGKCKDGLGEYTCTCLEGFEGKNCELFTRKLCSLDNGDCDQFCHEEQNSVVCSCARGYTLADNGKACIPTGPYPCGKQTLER

On to “6-[(1,3-benzothiazol-2-ylthio)methyl]-2-[(5,6-dimethylquinazolin-2-yl)amino]pyrimidin-4(3H)-one [VGY-0006889]”, for which the IC50 in series [1] came out at 2.3 µM.
Regarding `Cc1ccc(C)c(N2C(=O)CC(N3CCN(Cc4ccc5c(c4)OCO5)CC3)C2=O)c1` (stereo not drawn) [VGY-0015091], in series [1], the “inhibitory activity against factor Xa (in words)” value (“inhibitory activity” below) was “did not show any inhibitory activity” and the “Inhibition of hydrolysis rate specific to the factor Xa substrate in the buffer system IC50” value (“Inhibition of hydrolysis rate specific” for short) is recorded as “Not inhibited”.
With `CC1(c2ccc(Cl)cc2)CC(C)(C)N(C(=O)CSc2ccc(Cl)cc2)c2ccccc21` (stereo not drawn) [VGY-0016013], the IC50 in series [1] came out at 19 µM.
Take `CN1CCN(C2CC(=O)N(c3ccc(Oc4ccccc4)cc3)C2=O)CC1` (stereo not drawn) [VGY-0017263]: in series [1], the “inhibitory activity” value is recorded as “did not show any inhibitory activity” and the “Inhibition of hydrolysis rate specific” value is reported as “Not inhibited”.
In the case of `COc1cc2c3c(c1)-c1c(sn(-c4ccc(Oc5ccc(Cl)cc5)cc4)c1=S)C(C)(C)N3C(=O)C2=O` [VGY-0018521], in series [1], the IC50 is 6.3 µM.
Regarding `Clc1ccc2nc(Nc3nc(-c4ccccc4)c4ccccc4n3)nc(-c3ccccc3)c2c1` [VGY-0018863], the IC50 in series [1] was determined as 10 µM.
Regarding `CC1=CC(C)(C)N2C(=O)C(=C3SC(=S)NC3=O)c3cc(OC(=O)C=Cc4cccc([N+](=O)[O-])c4)cc1c32` [VGY-0018989, 4,4,6-trimethyl-2-oxo-1-(4-oxo-2-thioxo-1,3-thiazolidin-5-ylidene)-1,2-dihydro-4H-pyrrolo[3,2,1-ij]quinolin-8-yl-3-(3-nitrophenyl)prop-2-enoate], the IC50 in series [1] was determined as 1.8 µM.
For the compound `CC1(c2ccc(Cl)cc2)CC(C)(C)N2C(=O)/C(=N/c3ccc(Oc4ccccc4)cc3)c3cccc1c32` (stereo not drawn) [VGY-0027889], the IC50 in series [1] was 20.6 µM.
In the case of `COc1ccc(C2CC(=O)c3cnc(Nc4nc(C)c5cc(C)c(C)cc5n4)nc3C2)cc1` (stereo not drawn) [VGY-0035262, 7-(4-methoxyphenyl)-2-[(4,6,7-trimethylquinazolin-2-yl)amino]-7,8-dihydroquinazolin-5(6H)-one], the IC50 in series [1] was found to be 3.1 µM.
Still for that read-out and setting: the same measure for `Cc1cc2nc(Nc3ncc4c(n3)CC(c3cccs3)CC4=O)nc(C)c2cc1C` (stereo not drawn) [VGY-0037900]: 10 µM; for `O=C1CC(c2cccc(Cl)c2)Cc2nc(N3CCN(Cc4ccc5c(c4)OCO5)CC3)ncc21` (stereo not drawn) [VGY-0037972]: 5 µM.
For `O=C1CC(c2ccco2)Cc2nc(N3CCN(Cc4ccc5c(c4)OCO5)CC3)ncc21` (stereo not drawn) [VGY-0038035], the “solubility (in words)” value in series [2] is reported as “poor solubility”. At 51 µM the inhibition in series [1] (at concentration of 51 μM) was 34%. In addition, in series [1], the “inhibitory activity” value is recorded as “weakly inhibited” and the “Inhibition of hydrolysis rate specific” value was “Weakly inhibited”.
Regarding `Cc1nc(N2CCN(C)CC2)[nH]c(=O)c1Cc1ccc(C(C)C)cc1` [VGY-0039772], in series [1], the “inhibitory activity” value is reported as “did not show any inhibitory activity” and the “Inhibition of hydrolysis rate specific” value is “Not inhibited”.
For the compound `CC1CC2(CCCC2)N2C(=O)C3(NCCc4c3[nH]c3ccccc43)c3cc(F)cc1c32` (stereo not drawn) [VGY-0041455], the IC50 in series [1] was found to be 40 µM.
Regarding `COc1cccc(NC(=O)c2nnc3c(-c4ccc(Br)cc4)c(C)nn3c2C)c1` [VGY-0101011, 8-(4-bromophenyl)-N-(3-methoxyphenyl)-4,7-dimethylpyrazolo[5,1-c][1,2,4]triazine-3-carboxamide], the IC50 in series [1] was found to be 2 µM.
For `CCOc1ccc(N2CN(CCCN3CCOCC3)Cn3c2nc(C)c(C)c3=O)cc1` [VGY-0160076], in series [1], the “inhibitory activity” value is recorded as “did not show any inhibitory activity” and the “Inhibition of hydrolysis rate specific” value is given as “Not inhibited”.
On to `Cc1ccc2nc(Nc3nc(-c4cnc(N5CCCCC5)nc4C)cc(=O)[nH]3)nc(C)c2c1` [VGY-0163641], for which the IC50 in series [1] was 12 µM.

Usually IC50 stands for the concentration needed to halve the response being measured. Usually inhibition stands for the percentage by which the read-out fell short of the control. Low readings indicate little suppression, high ones strong suppression.
